# Measured values as given in the supplement of paper PMC3493320.
# Tested on: NCI-H295R
# Assay: IC50 (antiproliferative, ATP content)
# Conditions: 48 h
# Method in brief: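 Adrenocortical carcinoma cells in 1536-well plates (1500 per well, serum-free DMEM plus ITS, overnight culture) were exposed for 48 h at 37 °C, 5% CO2 to pin-transferred compounds at 8 final concentrations ranging 0.6 nM to 46 µM. ATP content was then read as CellTiter-Glo luminescence and normalised to vehicle and positive-control wells. The IC50 came from logistic curve fits, and any compound lacking a concentration response was recorded as above the top dose.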
row,IC50 [µM],Compound
1,> 46,O=[C@](N[C@H]2C[C@@H]2[C@]3=CC=CC=C3)[C@H]1NC(CC1)=O
2,> 46,CCc1nnc(NS(=O)(=O)c2ccc(N)cc2)s1
3,> 46,Cc1ccc(N(CC2=NCCN2)c2cccc(O)c2)cc1
4,> 46,O=C(CN1CCNCC1)NC1CCCCC1
5,> 46,O=C3N1/C(=C(\CS[C@@H]1[C@@H]3NC(=O)Cc2ccccc2CN)CSc4nnnn4CC(O)=O)C(O)=O
6,> 46,Cc1ccnc2c1NC(=O)c1cccnc1N2C1CC1
7,> 46,Cc1c(C)n(CCN(C)C)c2ccc(C(=O)OCCN(C)C)cc12
8,> 46,CC1(C)Oc2ccc(C#N)cc2[C@@H](N2CCCC2=O)[C@@H]1O
9,> 46,CCC(C(=O)OCCN(CC)CC)c1ccccc1 (stereo not drawn)
10,> 46,Cc1c(I)c(=O)n(-c2ccccc2)n1C
11,> 46,O=c1cc[nH]c(=S)[nH]1
12,> 46,CCOc1ccc(/N=C(\C)Nc2ccc(OCC)cc2)cc1
13,> 46,CCc1ncnc2cc(OC)c(OC)cc12
14,> 46,NCCCC(O)(P(=O)([O-])O)P(=O)(O)O.O.O.O.[Na+]
15,> 46,C[C@H](CCC(=O)O)[C@H]1CC[C@H]2[C@@H]3C(=O)C[C@@H]4CC(=O)CC[C@]4(C)[C@H]3CC(=O)[C@]12C
16,> 46,Nc1nc(=O)c2c([nH]1)NCC(CNc1ccc(C(=O)N[C@@H](CCC(=O)[O-])C(=O)[O-])cc1)N2C=O.[Ca+2] (stereo partly drawn)
17,> 46,CCC(=O)[C@@]1(C)[C@H](C)C[C@H]2[C@@H]3CCC4=CC(=O)C=C[C@]4(C)[C@H]3[C@@H](O)C[C@@]21C
18,> 46,COc1ccc(/C=C/C(=O)Nc2ccccc2C(=O)O)cc1OC
19,> 46,NC(=O)C1c2ccccc2CCc2ccccc21
20,> 46,Cl.O=C1NCC2(CCN(CCc3ccccc3)CC2)O1
21,> 46,F[C@]1([C@](C[C@@H]3C)([H])[C@@]4([H])[C@]([C@@](CC4)(O)[C@@](C)=O)(C)C[C@@H]1O)[C@](C=C2)(C)C3=CC2=O
22,> 46,NC(=O)c1ccccc1O
23,> 46,NC(=O)NO
24,> 46,CC/C=C\C/C=C\C/C=C\CCCCCCCC(=O)O
25,> 46,CCSc1ccc2c(c1)N(CCCN1CCN(C)CC1)c1ccccc1S2.O=C(O)CC(O)C(=O)O.O=C(O)CC(O)C(=O)O
26,> 46,NS(=O)(=O)c1cc2c(cc1C(F)(F)F)NC(Cc1ccccc1)NS2(=O)=O (stereo not drawn)

row,IC50 [µM],Compound
1,> 46,C[C@@H]1CN(c2c(F)c(F)c3c(=O)c(C(=O)O)cn(C4CC4)c3c2F)C[C@H](C)N1
2,> 46,O=C(C)N(CC4)CCN4C(C=C5)=CC=C5OC[C@]2([H])O[C@@](OC2)(CN3C=NC=C3)[C@@]1=CC=C(Cl)C=C1Cl
3,> 46,CC(=O)Oc1ccccc1C(=O)O
4,> 46,n\24c1c(CCN3[C@H]1[C@](/C=C/2C(=O)OCC)(CCC3)CC)c5c4cccc5
5,> 46,Cc1cccc(Nc2cc(Cl)nc(SCC(=O)O)n2)c1C
6,> 46,O=C1OC2(c3ccc([O-])cc3Oc3cc([O-])ccc32)c2ccccc21.[Na+].[Na+]
7,> 46,O=C(OCc1ccccc1)c1ccc(O)cc1
8,> 46,C=C[C@H]1CN2CC[C@H]1C[C@@H]2[C@@H](O)c1ccnc2ccc(OC)cc12
9,> 46,COC(=O)[C@H](Cc1ccccc1)NC(=O)[C@@H](N)CC(=O)O
10,> 46,O=C(O)[C@@H](S)[C@H](S)C(=O)O
11,> 46,CNC(=O)OCc1cccc(COC(=O)NC)n1
12,> 46,CC(O)CO (stereo not drawn)
13,> 46,CC(C)COC(=O)c1ccc(N)cc1
14,> 46,COc1ccc2nc(NC(=O)Nc3ccccc3)sc2c1
15,> 46,CCCCCN(CCCCC)C(=O)C(CCC(=O)[O-])NC(=O)c1ccc(Cl)c(Cl)c1.[Na+] (stereo not drawn)
16,> 46,Cc1ncc(CSSCc2cnc(C)c(O)c2CO)c(CO)c1O.Cl.Cl
17,> 46,O=C([O-])CN(CCN(CC(=O)[O-])CC(=O)[O-])CC(=O)[O-].[Ca+2].[Na+].[Na+]
18,> 46,NC(=O)OCC(COC(N)=O)c1ccccc1
19,> 46,CC(C)CCOC(=O)c1ccc(N(C)C)cc1
20,> 46,OC[C@@H](O)[C@@H](O)[C@@H](CO)O
21,> 46,COC(=O)C(CN)c1c[nH]c2ccc(OC)cc12.Cl (stereo not drawn)
22,> 46,CC(C)OC(=O)C(C)(C)Oc1ccc(C(=O)c2ccc(Cl)cc2)cc1
23,> 46,O=C(N[C@H]([C@H]1O[C@@H]([C@@H]4O)OC(C(O)=O)[C@H]([C@@H]4O)O[C@@H]([C@@H]3NC(C)=O)O[C@@H]([C@H](C3O[C@H]([C@@H]2O)O[C@H]([C@](O)=O)C([C@@H]2O)O)O)CO)C(O[C@@H]([C@H]1O)CO)O)C (stereo partly drawn)
24,> 46,CCN(Cc1ccncc1)C(=O)C(CO)c1ccccc1 (stereo not drawn)
25,> 46,CC=CC=CC(=O)O
26,> 46,[O-][C@@]([C@@]13[C@@]([C@]2([H])OC(C)(C)OC[C@@]([H])2O3)([H])OC(C)(C)O1)=O.[Na+]

row,IC50 [µM],Compound
1,> 46,CC(C)c1nc(N(C)S(C)(=O)=O)nc(-c2ccc(F)cc2)c1/C=C/C(O)CC(O)CC(=O)[O-].CC(C)c1nc(N(C)S(C)(=O)=O)nc(-c2ccc(F)cc2)c1/C=C/C(O)CC(O)CC(=O)[O-].[Ca+2] (stereo not drawn)
2,> 46,O=C(O)Cc1nn(Cc2ccc(Br)cc2F)c(=O)c2ccccc12
3,> 46,O=P(O)(O)C(O)(Cn1ccnc1)P(=O)(O)O
4,> 46,COc1c(N2C[C@@H]3CCCN[C@@H]3C2)c(F)cc2c(=O)c(C(=O)O)cn(C3CC3)c12.Cl
5,> 46,CCCCCCCCCCCCCCCCCCOCC(O)CO (stereo not drawn)
6,> 46,CC(=O)NS(=O)(=O)c1ccc(N)cc1
7,> 46,CCC(=O)c1ccc(O)cc1
8,> 46,CC(C)CCC[C@@H](C)[C@H]1CC[C@H]2[C@@H]3CC[C@@H]4C[C@H](O)CC[C@]4(C)[C@H]3CC[C@]12C
9,> 46,CO[C@H]1/C=C/O[C@@]2(C)Oc3c(C)c(O)c4c(O)c(cc([O-])c4c3C2=O)NC(=O)/C(C)=C\C=C\[C@H](C)[C@H](O)[C@@H](C)[C@@H](O)[C@@H](C)[C@H](OC(C)=O)[C@@H]1C.[Na+]
10,> 46,[C@]43(\C(=C2\C(c1c(O)cccc1[C@](C2C[C@H]3[C@@H](/C(=C(\C4=O)C(NCN5CCCC5)=O)O)N(C)C)(O)C)=O)O)O (stereo partly drawn)
11,> 46,N[C@@H](C\C1=C\N=C/N1)C(O)=O.Cl
12,> 46,CCCCCCCCCCCCCCCC[N+](C)(C)CCN(Cc1ccc(OC)cc1)c1ncccn1.[Br-]
13,> 46,CC[N+](CC)(CC)CCOc1ccc(/C=C/c2ccccc2)cc1.[I-]
14,> 46,COC(=O)[C@@H](N)CS.Cl
15,> 46,Cn1c(=O)c2[nH]c(Br)nc2n(C)c1=O
16,> 46,CC(=O)N[C@@H](Cc1ccc(O)cc1)C(=O)O
17,> 46,O=C1C(C(O)=CC(O)=C2)=C2O[C@H]([C@](C=C5)=CC3=C5O[C@H](CO)[C@@H]([C@]4=CC(OC)=C(O)C=C4)O3)[C@H]1O
18,> 46,CCC(C)C(N)C(=O)O (stereo not drawn)
19,> 46,CC1Cc2ccccc2N1NC(=O)c1ccc(Cl)c(S(N)(=O)=O)c1 (stereo not drawn)
20,> 46,O=C(O)C[CH2][Ge](=[O])[O][Ge](=[O])[CH2]CC(=O)O
21,> 46,Cn1c([N+](=O)[O-])cnc1COC(N)=O
22,> 46,CC(C)CCC[C@@H](C)[C@H]1CC[C@H]2[C@@H]3CC=C4C[C@@H](O)CC[C@]4(C)[C@H]3CC[C@]12C
23,> 46,CCCCCCCC(=O)OCC(COC(=O)CCCCCCC)OC(=O)CCCCCCC
24,> 46,O=C(O)C1CCCN1 (stereo not drawn)

row,Compound,IC50 [µM]
1,CO/N=C1\CN(c2nc3c(cc2F)c(=O)c(C(=O)O)cn3C2CC2)CC1CN.CS(=O)(=O)O (stereo not drawn),> 46
2,C[C@]12C[C@H]3S[C@H]3C[C@@H]1CC[C@@H]1[C@@H]2CC[C@]2(C)[C@@H](O)CC[C@@H]12,> 46
3,O.O.O.O.[Na+].[O-]c1ccccc1-c1ccccc1,> 46
4,c1ccc2c(c1)Nc1ccccc1S2,> 46
5,Clc1ccc2c(c1)C(c1ccccc1)=NCc1nncn1-2,> 46
6,COc1ccc(C(CN(C)C)C2(O)CCCCC2)cc1 (stereo not drawn),> 46
7,c1csc(C2(N3CCCCC3)CCCCC2)c1,> 46
8,CN1[C@@H]2CC[C@H]1C[C@@H](OC(=O)c1cc(Cl)cc(Cl)c1)C2,> 46
9,c1ccc2c(c1)sc1ccccc12,> 46
10,O=[N+]([O-])c1ccc(F)c([N+](=O)[O-])c1,> 46
11,C[N+]1(C)CCCC(OC(=O)C(O)(c2ccccc2)c2ccccc2)C1.[Br-] (stereo not drawn),> 46
12,COc1ccc2c3c1O[C@H]1C(=O)CC[C@H]4[C@@H](C2)N(C)CC[C@]314.COc1ccc2c3c1O[C@H]1C(=O)CC[C@H]4[C@@H](C2)N(C)CC[C@]314.O=P(O)(O)O.O=P(O)(O)O.O=P(O)(O)O,> 46
13,CCOC(=O)C1(c2ccccc2)CCN(CCC(C#N)(c2ccccc2)c2ccccc2)CC1.Cl,> 46
14,Cc1ccsc1/C=C/C1=NCCCN1C.O=C(O)[C@@H](O)[C@H](O)C(=O)O,> 46
15,O=[N+]([O-])c1cc([As](=O)(O)O)ccc1O,> 46
16,CCNc1nc(Cl)nc(NCC)n1,> 46
17,COc1ccc(OC)c(C(O)C(C)N)c1.Cl (stereo not drawn),> 46
18,CCCC(C)(COC(N)=O)COC(=O)NC(C)C (stereo not drawn),> 46
19,C=CCN1CC[C@]23c4c5ccc(O)c4O[C@H]2C(=O)CC[C@@]3(O)[C@H]1C5,> 46
20,C[C@]12CC[C@H](OS(=O)(=O)[O][Na])CC1=CC[C@@H]1[C@@H]2CC[C@]2(C)C(=O)CC[C@@H]12.O.O,> 46
21,CCN(CC)CCOCCOC(=O)C(CC)(CC)c1ccccc1.O=C(O)CC(O)(CC(=O)O)C(=O)O,> 46
22,Nc1c2c(nc3ccccc13)CCCC2O.O=C(O)/C=C\C(=O)O (stereo not drawn),> 46
